Assay results published in ChEMBL document CHEMBL1201862, “PubChem BioAssay data set” (2004).
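Step 1: Grow cells in 96-well plates. Step 2: Expose to compound for 48 hours at 5 concentrations. Step 3: Interpolate endpoints linearly; if unreached, use highest concentration. GI50 is the concentration that inhibits growth by half.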 Calls of active or inactive are those of the source. Rule as the data show it: active = GI50 up to about 1.1 µM and inactive = higher.

Experiments:
Experiment in all cases: growth of human tumour cells (NCI), 48 h
[1] = test system: 786-0
[2] = test system: A498
[3] = test system: A549
[4] = test system: ACHN
[5] = test system: BT-549
[6] = test system: CAKI-1
[7] = test system: CCRF-CEM
[8] = test system: COLO 205
[9] = test system: DU-145
[10] = test system: EKVX
[11] = test system: HCC 2998
[12] = test system: HCT-116
[13] = test system: HCT-15
[14] = test system: HL-60
[15] = test system: HOP-62
[16] = test system: HOP-92
[17] = test system: HT-29
[18] = test system: Hs-578T
[19] = test system: IGROV-1
[20] = test system: K562
[21] = test system: KM12
[22] = test system: M14
[23] = test system: MCF7
[24] = test system: MDA-MB-231
[25] = test system: MDA-MB-435
[26] = test system: MOLT-4
[27] = test system: NCI-H226
[28] = test system: NCI-H23
[29] = test system: NCI-H460
[30] = test system: NCI-H522
[31] = test system: NCI/ADR-RES
[32] = test system: OVCAR-3
[33] = test system: OVCAR-4
[34] = test system: OVCAR-5
[35] = test system: OVCAR-8
[36] = test system: PC-3
[37] = test system: RPMI-8226
[38] = test system: RXF 393
[39] = test system: SF-268
[40] = test system: SF-295
[41] = test system: SF-539
[42] = test system: SK-MEL-28
[43] = test system: SK-MEL-2
[44] = test system: SK-MEL-5
[45] = test system: SK-OV-3
[46] = test system: SN12C
[47] = test system: SNB-19
[48] = test system: SNB-75
[49] = test system: SR
[50] = test system: SW-620
[51] = test system: T47D
[52] = test system: TK-10
[53] = test system: U-251
[54] = test system: UACC-257
[55] = test system: UACC-62
[56] = test system: UO-31
[57] = test system: LOX IMVI
[58] = test system: MDA-N
[59] = test system: Malme-3M

In the case of `CC(C)(C)OC(=O)N(CCCCNC(=O)C(F)(F)F)CCCNC(=O)C(F)(F)F`, the GI50 [1] is reported as > 100 µM (inactive), the GI50 [2] is reported as > 100 µM (inactive) and the GI50 [3] is reported as > 100 µM (inactive). The GI50 [4] was > 100 µM (inactive), the GI50 [5] was > 100 µM (inactive) and the GI50 [6] was > 100 µM (inactive). The GI50 [7] was > 100 µM (inactive), the GI50 [8] was > 100 µM (inactive) and the GI50 [9] was > 100 µM (inactive). For the same compound, the GI50 [10] was > 100 µM (inactive), the GI50 [11] was > 100 µM (inactive) and the GI50 [12] was > 100 µM (inactive). For the same compound, the GI50 [13] was over 100 µM, the GI50 [14] was 87.5 µM (inactive) and the GI50 [15] was > 100 µM (inactive). The GI50 [16] was > 100 µM (inactive), the GI50 [17] was > 100 µM (inactive) and the GI50 [18] was > 100 µM (inactive). The GI50 [19] was > 100 µM (inactive), the GI50 [20] was > 100 µM (inactive) and the GI50 [21] was > 100 µM (inactive). The GI50 [22] was > 100 µM (inactive), the GI50 [23] was > 100 µM (inactive) and the GI50 [24] was > 100 µM (inactive). The GI50 [25] was > 100 µM (inactive), the GI50 [26] was > 100 µM (inactive) and the GI50 [27] was > 100 µM (inactive). The GI50 [28] was > 100 µM (inactive), the GI50 [29] was > 100 µM (inactive) and the GI50 [30] was > 100 µM (inactive). For the same compound, the GI50 [31] was > 100 µM (inactive), the GI50 [32] was > 100 µM (inactive) and the GI50 [33] was > 100 µM (inactive). The GI50 [34] was > 100 µM (inactive), the GI50 [35] was > 100 µM (inactive) and the GI50 [36] was > 100 µM (inactive). The GI50 [37] was > 100 µM (inactive), the GI50 [38] was > 100 µM (inactive) and the GI50 [39] was > 100 µM (inactive). The GI50 [40] was > 100 µM (inactive), the GI50 [41] was > 100 µM (inactive) and the GI50 [42] was > 100 µM (inactive). The GI50 [43] was > 100 µM (inactive), the GI50 [44] was > 100 µM (inactive) and the GI50 [45] was > 100 µM (inactive). The GI50 [46] was > 100 µM (inactive), the GI50 [47] was > 100 µM (inactive) and the GI50 [48] was > 100 µM (inactive). For the same compound, the GI50 [49] was > 100 µM (inactive), the GI50 [50] was > 100 µM (inactive) and the GI50 [51] was > 100 µM (inactive). For the same compound, the GI50 [52] was > 100 µM (inactive), the GI50 [53] was > 100 µM (inactive) and the GI50 [54] was > 100 µM (inactive). The GI50 [55] was > 100 µM (inactive) and the GI50 [56] was > 100 µM (inactive).
In the case of `COC(=O)C1=CC2C(=O)c3ccccc3C1(c1ccccc1)N2C1CCCCC1` (stereo not given), the GI50 [1] is reported as > 100 µM (inactive), the GI50 [2] is reported as 26.7 µM (inactive) and the GI50 [3] is reported as 20 µM (inactive). The GI50 [4] was 16.2 µM (inactive), the GI50 [5] was 22.6 µM (inactive) and the GI50 [6] was 20.5 µM (inactive). For the same compound, the GI50 [7] was 15.1 µM (inactive), the GI50 [8] was 13.1 µM (inactive) and the GI50 [9] was 27 µM (inactive). The GI50 [10] was 34.9 µM (inactive), the GI50 [11] was 3.15 µM (inactive) and the GI50 [12] was 25.1 µM (inactive). The GI50 [13] was 27 µM, the GI50 [14] was 11.6 µM (inactive) and the GI50 [15] was 16.7 µM (inactive). For the same compound, the GI50 [16] was 22.6 µM (inactive), the GI50 [17] was 14.8 µM (inactive) and the GI50 [19] was 20.1 µM (inactive). For the same compound, the GI50 [20] was 4.63 µM (inactive), the GI50 [21] was 14.3 µM (inactive) and the GI50 [57] was 15.5 µM (inactive). For the same compound, the GI50 [22] was 20 µM (inactive), the GI50 [23] was 15.6 µM (inactive) and the GI50 [24] was 17 µM (inactive). For the same compound, the GI50 [25] was 16.9 µM (inactive), the GI50 [58] was 23.7 µM (inactive) and the GI50 [26] was 7.55 µM (inactive). For the same compound, the GI50 [59] was 22.6 µM (inactive), the GI50 [27] was 24.7 µM (inactive) and the GI50 [28] was 18.7 µM (inactive). The GI50 [29] was 14.8 µM (inactive), the GI50 [30] was 27.9 µM (inactive) and the GI50 [31] was 27.9 µM (inactive). The GI50 [32] was 23.6 µM (inactive), the GI50 [33] was 17.1 µM (inactive) and the GI50 [34] was 32.3 µM (inactive). The GI50 [35] was 27 µM (inactive), the GI50 [36] was 9.62 µM (inactive) and the GI50 [38] was 7.87 µM (inactive). The GI50 [39] was 27.2 µM (inactive), the GI50 [40] was 16 µM (inactive) and the GI50 [41] was 20.6 µM (inactive). For the same compound, the GI50 [42] was 17.6 µM (inactive), the GI50 [43] was 12.3 µM (inactive) and the GI50 [44] was 10.1 µM (inactive). For the same compound, the GI50 [45] was 31 µM (inactive), the GI50 [46] was 24 µM (inactive) and the GI50 [47] was 39.9 µM (inactive). The GI50 [48] was 35.1 µM (inactive), the GI50 [50] was 27.2 µM (inactive) and the GI50 [52] was 30.1 µM (inactive). The GI50 [53] was 16.6 µM (inactive), the GI50 [54] was 12.4 µM (inactive) and the GI50 [56] was 15.1 µM (inactive).
